The target of assay [1] is T1, acetylcholinesterase (Mus musculus, UniProt P21836).
T1 construct: phosphate buffer solution containing the brain homogenate; from tissue; host or cells: mouse whole brain homogenate
T1 sequence (P21836 32-614): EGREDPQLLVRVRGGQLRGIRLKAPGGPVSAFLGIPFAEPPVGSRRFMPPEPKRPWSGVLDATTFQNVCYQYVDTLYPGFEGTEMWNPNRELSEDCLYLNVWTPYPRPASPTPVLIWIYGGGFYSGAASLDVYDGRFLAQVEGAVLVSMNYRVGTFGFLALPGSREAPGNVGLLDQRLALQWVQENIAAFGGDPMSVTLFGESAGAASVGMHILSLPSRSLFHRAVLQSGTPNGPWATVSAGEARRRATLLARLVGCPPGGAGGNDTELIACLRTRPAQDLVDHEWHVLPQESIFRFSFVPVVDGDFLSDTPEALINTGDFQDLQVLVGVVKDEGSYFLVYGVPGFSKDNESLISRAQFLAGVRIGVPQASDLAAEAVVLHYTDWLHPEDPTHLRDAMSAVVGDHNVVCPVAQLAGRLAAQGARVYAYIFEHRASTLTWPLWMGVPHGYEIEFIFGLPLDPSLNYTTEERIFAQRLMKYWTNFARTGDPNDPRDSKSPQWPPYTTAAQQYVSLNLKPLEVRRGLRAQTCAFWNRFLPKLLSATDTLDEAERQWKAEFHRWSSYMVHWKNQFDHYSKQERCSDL
The assay can be described thus: biochemical.

Assay [2] concerns the target T2, serotonin re-uptake (Rattus norvegicus, UniProt P31652).
T2 construct: synaptosome prepared from rat whole brains except the cerebellums; from tissue; host or cells: synaptosomes from rat whole brain except the cerebellum
Description: Serotonin re-uptake inhibitory activity (synaptosome, [3H]5-HT). It counts as biochemical. As to the method: Serotonin re-uptake inhibitory activity was determined using synaptosome prepared from rat whole brains except the cerebellums. Briefly, 10 μl of DMSO solution-dissolved test substance (control group; DMSO solution alone) was added to 1 ml of synaptosome and incubated for 5 min at 37° C. (in the control, DMSO alone was added to the synaptosome and incubated at 4° C.). Furthermore, 10 μl of [^3H]5-HT solution (final concentration: 10 μM as a total concentration of 5-HT, 100 nM as [^3H]5-HT) was added and incubated for 5 min at 37° C. Then 4 ml of ice-cold saline was added to stop the response. The response solution was filtered, 4 ml of saline was added, and the solution was once again filtered. Furthermore, 5 ml of Pico-Fluor was added, then ^3H levels on filter papers were counted by a liquid scintillation counter. Concentrations of test compounds to inhibit serotonin re-uptake by 50% (IC50) were calculated.

The mark [3] stands for this setting: synaptosome from rat whole brain except cerebellum, [3H]5-HT, 37° C., read-out: IC50 (nM) Serotonin re-uptake inhibitory activity.

Structures can show the parent of a compound that is named as a salt. Where two headings read alike, the source gives them in different places.

T2 sequence (P31652 whole entry): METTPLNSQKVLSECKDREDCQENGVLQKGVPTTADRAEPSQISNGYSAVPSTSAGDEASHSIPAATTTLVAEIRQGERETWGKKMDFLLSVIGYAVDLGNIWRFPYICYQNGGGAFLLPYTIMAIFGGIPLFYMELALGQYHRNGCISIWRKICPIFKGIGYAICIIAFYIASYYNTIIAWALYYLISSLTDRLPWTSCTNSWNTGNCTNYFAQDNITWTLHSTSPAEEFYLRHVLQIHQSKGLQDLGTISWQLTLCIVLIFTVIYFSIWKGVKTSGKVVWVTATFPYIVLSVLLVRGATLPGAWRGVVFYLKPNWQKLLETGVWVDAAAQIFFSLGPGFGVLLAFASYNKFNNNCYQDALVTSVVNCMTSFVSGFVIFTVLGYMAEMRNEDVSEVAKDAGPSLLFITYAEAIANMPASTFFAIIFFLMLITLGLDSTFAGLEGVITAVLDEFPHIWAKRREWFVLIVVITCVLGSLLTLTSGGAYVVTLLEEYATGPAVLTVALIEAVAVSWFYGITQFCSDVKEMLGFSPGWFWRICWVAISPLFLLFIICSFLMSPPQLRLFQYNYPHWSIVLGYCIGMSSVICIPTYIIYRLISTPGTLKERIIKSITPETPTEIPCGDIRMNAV

With `CNC(CCOc1ccc([N+](=O)[O-])cc1Cl)c1ccc(OC(=O)N(C)C)cc1` (stereo not drawn) [Test Compound 124, 4-[3-(2-Chloro-4-nitrophenoxy)-1-methylaminopropyl]phenyl dimethylcarbamate hydrochloride], the IC50 in assay [1] was 64 nM; in assay [2] (setting [3]), 110 nM.
The matching figures for `CN(C)C(=O)Oc1ccc2c(c1)C=CCN(C)C2CCOc1ccc(F)cc1Cl` (stereo not drawn) [Test Compound 195, 2-Methyl-1-[2-(2-chloro-4-fluorophenoxy) -ethyl]-2,3-dihydro-1H-benzo[c]azepin-7-yl dimethylcarbamate hydrochloride]: 50 nM and 44 nM.
As for `CN[C@H](CCOc1ccc(Cl)cc1)c1ccc(OC(=O)N(C)C)cc1` [Test Compound 62, (R)-4-[3-(4-Chlorophenoxy)-1-methylaminopropyl]phenyl dimethylcarbamate hydrochloride], the results for the IC50 in assay [1] and in assay [2] (setting [3]) were 270 nM and 343 nM, respectively.
`CN[C@@H](CCOc1ccc([N+](=O)[O-])cc1Cl)c1ccc(OC(=O)N(C)C)cc1` [Test Compound 127, (S)-4-[3-(2-Chloro-4-nitrophenoxy)-1-methylaminopropyl]phenyl dimethylcarbamate hydrochloride]: the IC50 in assay [1] stood at 40 nM; in assay [2] (setting [3]), 856 nM.
`CN(C)C(=O)Oc1ccc([C@H](CCOc2ccc([N+](=O)[O-])cc2Cl)N(C)C)cc1` [Test Compound 129, (S)-4-[3-(2-Chloro-4-nitrophenoxy)-1-dimethylaminopropyl]phenyl dimethylcarbamate hydrochloride]: the IC50 in assay [1] was 64 nM; in assay [2] (setting [3]), 650 nM.
For “4-[3-(4-Chlorophenoxy)-1-dimethylaminopropyl]-2-methylphenyl dimethylcarbamate hydrochloride [Test Compound 185]”, in assay [2] (setting [3]), the half-maximal inhibitory concentration (IC50) came out at 170 nM.
For `CN(C)C(=O)Oc1ccc2c(c1)CCN(C)C2CCOc1ccc([N+](=O)[O-])cc1` (stereo not drawn) [Test Compound 187, 2-Methyl-1-[2-(4-nitrophenoxy) -ethyl]-1,2,3,4-tetrahydroisoquinolin-6-yl dimethylcarbamate hydrochloride], the values for the IC50 in assay [1] and in assay [2] (setting [3]) were 11 nM and 940 nM, respectively.
With `CN(C)C(=O)Oc1ccc(C(CCOc2cccc(F)c2)N(C)C)cc1` (stereo not drawn) [Test Compound 70, 4-[1-Dimethylamino-3-(3-fluorophenoxy)propyl]phenyl dimethylcarbamate hydrochloride], the IC50 is 90 nM in assay [1] and 86 nM in assay [2] (setting [3]).
On to `CNC(CCOc1cccc(F)c1)c1ccc(OC(=O)N(C)C)cc1` (stereo not drawn) [Test Compound 68, 4-[3-(3-Fluorophenoxy)-1-methylaminopropyl]phenyl dimethylcarbamate hydrochloride], for which the half-maximal inhibitory concentration (IC50) in assay [1] was 580 nM; in assay [2] (setting [3]), 145 nM.
Take “4-[3-(4-Methylthiophenoxy)-1-dimethylaminopropyl]-2-methylphenyl dimethylcarbamate hydrochloride [Test Compound 186]”: the 50% inhibitory concentration (IC50) in assay [2] (setting [3]) worked out at 62 nM.
For the molecule `CN(C)C(=O)Oc1cccc(C(CCOc2ccc([N+](=O)[O-])cc2)N(C)C)c1` (stereo not drawn) [Test Compound 104, 3-[1-Dimethylamino-3-(4-nitrophenoxy)propyl]phenyl dimethylcarbamate hydrochloride], the IC50 in assay [1] came out at 53 nM; in assay [2] (setting [3]), 176 nM.
Turning to “2-Methyl-(1R)-[2-(4-methylthiophenoxy)-ethyl]-2,3-dihydro-1H-benzo[c]azepin-7-yl dimethylcarbamate hydrochloride [Test Compound 197]”, in assay [2] (setting [3]), the IC50 is 6 nM.
Regarding `CN(C)C(=O)Oc1ccc2c(c1)CCN(C)[C@@H]2CCOc1ccc([N+](=O)[O-])cc1Cl` [Test Compound 190, 2-Methyl-1-(R)-[2-(2-chloro-4-nitrophenoxy)-ethyl]-1,2,3,4-tetrahydroisoquinolin-6-yl dimethylcarbamate hydrochloride], the IC50 in assay [1] amounted to 12 nM; in assay [2] (setting [3]), 460 nM.
For the molecule `CNC(CCOc1cccc2ccccc12)c1ccc(OC(=O)N(C)C)cc1` (stereo not drawn) [Test Compound 179, 4-[3-(Naphthalen-1-yloxy)-1-methylaminopropyl]phenyl dimethylcarbamate hydrochloride], the IC50 in assay [1] is 372 nM; in assay [2] (setting [3]), 86 nM.
As for `CN(C)C(=O)Oc1ccc2c(c1)CCN(C)C2CCOc1ccc([N+](=O)[O-])cc1Cl` (stereo not drawn) [Test Compound 189, 2-Methyl-1-[2-(2-chloro-4-nitrophenoxy)-ethyl]-1,2,3,4-tetrahydroisoquinolin-6-yl dimethylcarbamate hydrochloride], the half-inhibitory concentration (IC50) in assay [1] turned out to be 6 nM; in assay [2] (setting [3]), 300 nM.
Consider “4-[3-(4-Methylthiophenoxy)-1-dimethylaminopropyl]phenyl dimethylcarbamate hydrochloride [Test Compound 175]”, for which the half-inhibitory concentration (IC50) in assay [2] (setting [3]) was 380 nM.
With `CN(C)C(=O)Oc1ccc([C@@H](CCOc2ccc([N+](=O)[O-])cc2)N(C)C)cc1` [Test Compound 102, (R)-4-[1-Dimethylamino-3-(4-nitrophenoxy)propyl]phenyl dimethylcarbamate hydrochloride], the concentration for half-maximal inhibition (IC50) amounted to 170 nM in assay [1] and 167 nM in assay [2] (setting [3]).
The corresponding values for `CN(C)C(=O)Oc1ccc(C(CCOc2ccc([N+](=O)[O-])cc2)N(C)C)cc1` (stereo not drawn) [Test Compound 89, 4-[1-Dimethylamino-3-(4-nitrophenoxy)propyl]phenyl dimethylcarbamate hydrochloride] are 87 nM and 319 nM.
As for `CN[C@@H](CCOc1cccc(Cl)c1)c1ccc(OC(=O)N(C)C)cc1` [Test Compound 81, (S)-4-[3-(3-Chlorophenoxy)-1-methylaminopropyl]phenyl dimethylcarbamate hydrochloride], the IC50 in assay [1] was 320 nM; in assay [2] (setting [3]) it was 228 nM.
For the molecule `CN[C@@H](CCOc1ccc([N+](=O)[O-])cc1)c1cccc(OC(=O)N(C)C)c1` [Test Compound 125, (S) -3-[3-(4-Nitrophenoxy)-1-methylaminopropyl]phenyl dimathylcarbamate hydrochloride], the IC50 in assay [1] (mouse whole brain homogenate, acetylthiocholine/DTNB, absorbance 412 nm, read-out: IC50 (nM) Acetylcholinesterase inhibitory activity) is 19 nM; in assay [2] (setting [3]), 841 nM.
On to `CN(C)C(=O)Oc1ccc2c(c1)C=CCN(C)[C@H]2CCOc1ccc([N+](=O)[O-])cc1` [Test Compound 200, 2-Methyl-(1S)-[2-(4-nitrophenoxy)-ethyl]-2,3-dihydro-1H-benzo[c]azepin-7-yl dimethylcarbamate hydrochloride], for which the IC50 in assay [2] (setting [3]) was determined as 930 nM.
On the same count and under the same terms, the result for “2-Methyl-1-[2-(4-methylthiophenoxy)-ethyl]-2,3-dihydro-1H-benzo[c]azepin-7-yl dimethylcarbamate hydrochloride [Test Compound 196]” reads 18 nM.
Same read-out and setting: then “4-[3-(4-Nitrophenoxy)-1-dimethylaminopropyl]-2-methylphenyl dimethylcarbamate hydrochloride [Test Compound 182]”, with 44 nM; and “(S)-4-[3-(4-Methylthiophenoxy)-1-methylaminopropyl]phenyl dimethylcarbamate hydrochloride [Test Compound 176]”, with 56 nM.
Consider `Cc1cc(OCCC2c3cccc(OC(=O)N(C)C)c3C=CCN2C)ccc1Cl` (stereo not drawn) [Test Compound 202, 2-Methyl-[2-(4-chloro-3-methylphenoxy)-ethyl]-2,3-dihydro-1H-benzo[c]azepin-6-yl dimethylcarbamate hydrochloride], for which half-maximal inhibition in assay [2] (IC50) was put at 900 nM.
Take `CN(C)C(=O)Oc1ccc2c(c1)C=CCN(C)C2CCOc1ccc([N+](=O)[O-])cc1` (stereo not drawn) [Test Compound 192, 2-Methyl-1-[2-(4-nitrophenoxy)-ethyl]-2,3-dihydro-1H-benzo[c]azepin-7-yl dimethylcarbamate hydrochloride]: the IC50 in assay [2] (setting [3]) worked out at 63 nM.
For “4-[3-(4-Methylthiophenoxy)-1-methylaminopropyl]phenyl dimethylcarbamate hydrochloride [Test Compound 174]”, the IC50 in assay [2] (setting [3]) was 85 nM.
“(R)-4-[3-(4-Methylthiophenoxy)-1-methylaminopropyl]phenyl dimethylcarbamate hydrochloride [Test Compound 177]”: in assay [2] (setting [3]), the IC50 amounted to 120 nM.
Regarding `CN(C)C(=O)Oc1ccc2c(c1)C=CCN(C)[C@@H]2CCOc1ccc([N+](=O)[O-])cc1` [Test Compound 199, 2-Methyl-[[(1S)]] (1R)-[2-(4-nitrophenoxy)-ethyl]-2,3-dihydro-1H-benzo[c]azepin-7-yl dimethylcarbamate hydrochloride], in assay [2] (setting [3]), the IC50 was 6 nM.

(Values after US7504393B2, “Benzylamine analogues” (priority 2001, dated 2009).)
